These results are taken from PubChem BioAssay AID1259426 (Fisher Drug Discovery Resource Center, 2018).

The source made the active and inactive calls.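 The calls were made as follows: active = EC50 under a set limit in control cells lacking the mosquito receptor, marking a fluorescence artifact; inactive = the rest.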

The target of this assay is HEK293 Galpha15/GCaMP6s without NPYLR7, calcium fluorescence. Nature of the assay: calcium response in NPYLR7-null HEK293 cells, dose response, counter-screen for mosquito NPYLR7 agonist project, cell-based, HEK293 lacking NPYLR7 (AID 1259426).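 Also: potency for a rise in fluorescence over baseline.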 Background: A counterscreen serves to expose hits that act by an unwanted route or on another target.
As a reminder, the EC50 is the midpoint of the concentration-response curve. As to `CCCc1nn2c(N)c(C=C3C=C(Cl)C(=O)C(Cl)=C3)c(=O)nc2s1`, the EC50 is > 20 µM (inactive).

As to `Clc1cccc2ccc(CN3CCn4cncc4C3)nc12`, the concentration for a half-maximal effect (EC50) is 19.2 µM.

Consider `CCCn1c2c(c(=O)n(C)c1=O)C(=O)C(=Cc1ccc(N(C)C)cc1)N2`, for which the concentration for a half-maximal effect (EC50) was 2.17 µM.

As for `CCOC(=O)C1=C(O)/C(=C\c2ccc(N(C)C)cc2)SC1=Nc1ccc(OC)cc1OC`, the EC50 was > 20 µM (inactive).

With `c1ccc(CNc2nc(NCCc3ccncc3)c3sccc3n2)cc1`, the 50% effective concentration (EC50) was 15.8 µM.

`Nc1ncnc2c1ncn2[C@@H]1O[C@H](CO)[C@H](O)C1O` (stereo partly specified): the EC50 was 7.87 µM.

In the case of `O=[N+]([O-])c1c[n+]([O-])n(-c2cccc(Cl)c2)n1`, the EC50 is > 20 µM (inactive).

Consider `O=C1SC(Nc2ccc(Br)cc2)C(=O)N1c1ccccc1` (stereo unspecified), for which the concentration giving a half-maximal response (EC50) is 17.9 µM.

With `Cc1ccc(C2=NN(C(=O)CN3CCN(C)CC3)C(c3ccccc3Cl)C2)cc1` (stereo unspecified), the EC50 is > 20 µM (inactive).

`Cc1cc(O)c(CN2CCN(CCO)CC2)c2c1C(=O)/C(=C/c1cc3ccccc3o1)O2`: the EC50 was 7.38 µM.

For the compound `CC1=CC(C)C(C(=O)O)C(C(=O)O)C1` (stereo unspecified), the EC50 is > 20 µM (inactive).

For the compound `CN1C(=S)N(CCCN2CCOCC2)C(=O)/C1=C/c1ccc(N(C)C)cc1`, the EC50 is > 20 µM (inactive).

`Nc1ccc(-c2nc3cc(N)cc(Cl)c3o2)cc1`: the concentration giving a half-maximal response (EC50) is 17 µM.

Regarding `CSc1ccc(C2CC(c3ccc(Cl)cc3)=Nc3ncnn32)cc1` (stereo unspecified), the EC50 was > 20 µM (inactive).

With `N#C/C(=C\c1ccc(O)c(O)c1)C(=O)NCc1ccccc1`, the EC50 is > 20 µM (inactive).

Consider `CCCc1[nH]n(-c2ccc(Cl)c(Cl)c2)c(=O)c1/C=C1\NC(=O)N(Cc2ccc(C)cc2)C1=O`, for which the EC50 was 18.9 µM.

On to `O=C(O)c1csc(CSc2nnc(Cc3ccccc3)n2-c2cccc(C(F)(F)F)c2)n1`, for which the EC50 is > 20 µM (inactive).

With `O=C1OC(c2ccc(Cl)c([N+](=O)[O-])c2)=N/C1=C\c1cc2cc3c4c(c2oc1=O)CCCN4CCC3`, the EC50 was < 0.039 µM.

With `CCOc1cc(/C=C2/Oc3cc(O)ccc3C2=O)cc(Cl)c1OCC(=O)N(C)C`, the EC50 is > 20 µM (inactive).

`CN1C=CC(=C/C=C2/C=Nc3ccccc32)C=C1`: the half-maximal effective concentration (EC50) was 9.41 µM.

On to `CCC(C)n1cc(/C=C2/C(=O)NC(=O)N(c3ccc4c(c3)OCO4)C2=O)c2ccccc21` (stereo unspecified), for which the EC50 is > 20 µM (inactive).

As to `CCN1C(=Cc2cc(C)[n+](CCOC)c(C)c2)Sc2ccccc21`, the EC50 is 17.6 µM.

Take `CCOc1ccc2nc3cc(N)ccc3c(N)c2c1`: the 50% effective concentration (EC50) is 4.44 µM.

Take `CSc1nnc2c(n1)OC(c1ccc(OC(=O)c3ccc(Br)cc3)cc1)Nc1ccccc1-2` (stereo unspecified): the EC50 was > 20 µM (inactive).

On to `CN=c1nc(-c2ccccc2)n(-c2ccccc2)s1`, for which the EC50 is > 20 µM (inactive).

In the case of `CCCc1[nH]n(-c2ccc(Cl)cc2)c(=O)c1/C=C1\NC(=O)N(Cc2ccc(C)cc2)C1=O`, the EC50 is > 20 µM (inactive).

Consider `CCCCCN=C(N)NN=Cc1c[nH]c2ccc(OC)cc12`, for which the EC50 was > 20 µM (inactive).

As to `Oc1oc(-c2ccccc2Br)nc1C=Nc1ccccc1`, the EC50 was 10.6 µM.

Turning to `O=C1/C(=C/c2cc3ccccc3o2)Oc2cc(O)ccc21`, the EC50 is > 20 µM (inactive).

`CC(C)C(=O)Nc1sc2c(c1-c1nc3ccccc3s1)CCN(C(C)C)C2`: the EC50 was > 20 µM (inactive).

With `COc1ccc(CCN2COc3ccc4c(c3C2)O/C(=C\c2ccncc2)C4=O)cc1OC`, the concentration for a half-maximal effect (EC50) is 14.8 µM.

As for `COc1ccc(/C=C2\Oc3c(ccc4c3CN(Cc3ccncc3)CO4)C2=O)cc1`, the EC50 is 8.8 µM.

Take `CCN1CCN(C2=CC3=CC(=C(C#N)C#N)CCC3CC2)CC1` (stereo unspecified): the EC50 is < 0.039 µM.

For `Cc1[nH]c(/C=C2\C(=O)Nc3ccccc32)c(C)c1CCC(=O)O`, the EC50 is < 0.039 µM.

Turning to `CCN(CC)Cc1c(O)cc(C)c2c1O/C(=C\c1cc3ccccc3o1)C2=O`, the EC50 is 9.1 µM.

On to `CCC(CO)[n+]1c(C)cc(C=C2Sc3ccccc3N2Cc2ccccc2)cc1C` (stereo unspecified), for which the EC50 is > 20 µM (inactive).

As to `N#CC1C(=N)Oc2cc(O)ccc2C1c1ccc(Cl)cc1Cl` (stereo unspecified), the EC50 is 11.9 µM.

With `Cn1c(C(C#N)=Cc2c(F)c(F)c(F)c(F)c2F)nc2ccccc21`, the concentration giving a half-maximal response (EC50) was < 0.039 µM.

For `COc1ccc(OC)c(CCNc2nc3cnc(-c4ccc5c(c4)OCO5)cc3n2C)c1`, the EC50 is > 20 µM (inactive).

In the case of `CCCC(C(=O)O)N1C(=O)/C(=C/c2ccc(O)cc2)SC1=S` (stereo unspecified), the EC50 is 8.28 µM.

In the case of `O=C1C(=Cc2ccccc2O)NC(=S)N1Cc1ccco1`, the half-maximal effective concentration (EC50) was 0.955 µM.

`CCOc1cc(/C=C2/NC(=S)NC2=O)cc(Br)c1O`: the EC50 was 6.37 µM.

As to `CCN(CC)CCNC(=O)c1c(C)[nH]c(/C=C2/C(=O)Nc3ccc(F)cc32)c1C`, the concentration for a half-maximal effect (EC50) is 11.3 µM.

As to `CN1CCc2c(sc(NC(=O)Cc3ccccc3)c2-c2nc3ccccc3s2)C1`, the EC50 is > 20 µM (inactive).

In the case of `CCCS(=O)(=O)N1CCN=C1SCc1ccccc1C`, the EC50 is > 20 µM (inactive).

Take `CNC(=O)NC(=O)CCN1CC(c2ccccc2Cl)c2c([nH]c3ccccc23)C1C` (stereo unspecified): the EC50 is > 20 µM (inactive).

On to `N#CC1C(=N)SC(=N)C(C#N)C1c1ccccc1F` (stereo unspecified), for which the EC50 was 10.2 µM.

`O=C1/C(=C/c2cccc(Cl)c2)Oc2c1ccc(O)c2CN1CCN(CCO)CC1`: the EC50 is 11.8 µM.

As to `CCn1c(=O)c2c(nc(/C=C/c3ccc(OC)c(OC)c3)n2C)n(CC)c1=O`, the EC50 was > 20 µM (inactive).

For `CCOC(=O)c1c(-c2ccccc2)csc1N=Cc1nc(-c2ccco2)oc1O`, the EC50 was > 20 µM (inactive).

Take `CSc1ccc(C2CC(c3cccs3)=Nc3ncnn32)cc1` (stereo unspecified): the 50% effective concentration (EC50) was 1.4 µM.

`O=c1nc2n3ccc(-c4ccncc4)cc3ncc-2s1`: the 50% effective concentration (EC50) is 18.3 µM.

As for `CCOC(=O)c1ccc(N=c2oc3cc(O)ccc3cc2-c2nc3ccccc3[nH]2)cc1`, the concentration giving a half-maximal response (EC50) is 0.204 µM.

`CCCc1ccccc1N1C(=O)CSC1c1ccc(NC(=O)CCl)cc1` (stereo unspecified): the EC50 was > 20 µM (inactive).

Regarding `COC(=O)C(C)Sc1nc2sc3c(c2c(=O)n1C)CCC3` (stereo unspecified), the EC50 is > 20 µM (inactive).

For the compound `O=C(c1snc2c(=O)n(Cc3ccccc3)c(=O)[nH]c12)N1CCSCC1`, the EC50 is > 20 µM (inactive).

As to `CCOC(=O)c1cc(O)c(C(=O)OCC)s1`, the EC50 is > 20 µM (inactive).

Turning to `Nc1c2c(nc3sc4c(c13)CCCC4)CCCCC2`, the EC50 is > 20 µM (inactive).

Consider `O=c1[nH]c(SCCO)nc2sc3c(c12)CCCC3`, for which the EC50 is > 20 µM (inactive).

With `N#Cc1cccc(C(=O)N2CCN(C(c3ccccc3)c3ccc(Br)cc3)CC2)c1` (stereo unspecified), the EC50 is > 20 µM (inactive).

In the case of `N#C/C(=C/c1ccc(N2CCCCC2)o1)c1cccc(F)c1`, the EC50 is > 20 µM (inactive).

As for `CCOC(=O)C1CCCN(CC(=O)N2N=C(c3ccccc3Cl)CC2c2ccc(Cl)cc2)C1` (stereo unspecified), the EC50 was > 20 µM (inactive).

Turning to `N#CC(C#N)=C1C=C2C=C(N3CCCC3)CCC2CC1` (stereo unspecified), the EC50 was < 17.7 µM.

Regarding `CS(=O)(=O)Nc1nc2n(n1)C(c1ccccc1)CC(c1ccc(Cl)cc1)=N2` (stereo unspecified), the EC50 is > 20 µM (inactive).

On to `CC(=O)OC(C)C[N+](C)(C)C` (stereo unspecified), for which the EC50 is > 20 µM (inactive).

As to `COc1ccc(/C=C2\Oc3c(ccc4c3CN(CC3CCCO3)CO4)C2=O)cc1` (stereo unspecified), the concentration giving a half-maximal response (EC50) is 9.33 µM.
